The Kinase Knowledgebase extract (Sharma et al. 2016)

Tests used:
[1] = molecular target: PIK3CA (human), P42336 [E545K]; experiment: Assessment of PIK3CA(E545K) Kinase Activity
PIK3CG (human) = PIK3CG (human) (UniProt P48736); experiment: Assessment of PIK3CG Kinase Activity
PIK3CA (human) = PIK3CA (human) (UniProt P42336); experiment: Assessment of PIK3CA Kinase Activity
PIK3CB (Human) = PIK3CB (Human) (UniProt P42338); experiment: Assessment of PIK3CB Kinase Activity
[2] = molecular target: PIK3CA (human), P42336 [H1047R]; experiment: Assessment of PIK3CA(H1047R) Kinase Activity
Sequence of PIK3CA (human), P42336 [H1047R] (P42336 whole entry H1047R, looked up): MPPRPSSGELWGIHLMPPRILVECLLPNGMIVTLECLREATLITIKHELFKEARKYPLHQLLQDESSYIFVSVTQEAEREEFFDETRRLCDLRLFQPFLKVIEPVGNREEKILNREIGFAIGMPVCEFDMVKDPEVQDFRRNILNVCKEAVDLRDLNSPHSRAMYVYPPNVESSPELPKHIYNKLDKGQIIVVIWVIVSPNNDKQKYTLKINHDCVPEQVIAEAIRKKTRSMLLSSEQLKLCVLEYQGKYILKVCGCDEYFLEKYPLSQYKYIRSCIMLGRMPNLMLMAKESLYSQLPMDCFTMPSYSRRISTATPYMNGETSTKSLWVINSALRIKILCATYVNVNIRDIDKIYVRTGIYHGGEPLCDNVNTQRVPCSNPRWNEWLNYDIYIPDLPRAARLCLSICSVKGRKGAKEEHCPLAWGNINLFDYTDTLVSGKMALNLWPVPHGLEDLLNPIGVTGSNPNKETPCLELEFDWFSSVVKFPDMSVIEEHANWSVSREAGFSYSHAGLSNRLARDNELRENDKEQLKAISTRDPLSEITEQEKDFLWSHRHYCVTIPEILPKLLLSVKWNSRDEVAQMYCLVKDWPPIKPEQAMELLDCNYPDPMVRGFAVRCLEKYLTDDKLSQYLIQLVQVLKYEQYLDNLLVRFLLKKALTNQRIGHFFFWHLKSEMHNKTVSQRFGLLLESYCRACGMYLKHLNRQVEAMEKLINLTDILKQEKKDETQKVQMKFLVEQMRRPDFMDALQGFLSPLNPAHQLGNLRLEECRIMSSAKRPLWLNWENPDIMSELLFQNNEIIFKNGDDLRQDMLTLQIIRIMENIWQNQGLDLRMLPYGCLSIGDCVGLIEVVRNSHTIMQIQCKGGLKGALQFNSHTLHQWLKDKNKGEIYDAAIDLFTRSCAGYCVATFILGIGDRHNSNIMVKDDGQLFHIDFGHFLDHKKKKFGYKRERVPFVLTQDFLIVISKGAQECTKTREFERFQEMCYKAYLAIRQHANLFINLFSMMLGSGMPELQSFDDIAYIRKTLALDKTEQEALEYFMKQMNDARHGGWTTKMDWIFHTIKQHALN

Sequence of PIK3CA (human), P42336 [E545K] (P42336 whole entry E545K, looked up): as the sequence (P42336 whole entry H1047R, looked up) above, with E545K, R1047H counted along it
Sequence of PIK3CG (human) (P48736 whole entry, looked up): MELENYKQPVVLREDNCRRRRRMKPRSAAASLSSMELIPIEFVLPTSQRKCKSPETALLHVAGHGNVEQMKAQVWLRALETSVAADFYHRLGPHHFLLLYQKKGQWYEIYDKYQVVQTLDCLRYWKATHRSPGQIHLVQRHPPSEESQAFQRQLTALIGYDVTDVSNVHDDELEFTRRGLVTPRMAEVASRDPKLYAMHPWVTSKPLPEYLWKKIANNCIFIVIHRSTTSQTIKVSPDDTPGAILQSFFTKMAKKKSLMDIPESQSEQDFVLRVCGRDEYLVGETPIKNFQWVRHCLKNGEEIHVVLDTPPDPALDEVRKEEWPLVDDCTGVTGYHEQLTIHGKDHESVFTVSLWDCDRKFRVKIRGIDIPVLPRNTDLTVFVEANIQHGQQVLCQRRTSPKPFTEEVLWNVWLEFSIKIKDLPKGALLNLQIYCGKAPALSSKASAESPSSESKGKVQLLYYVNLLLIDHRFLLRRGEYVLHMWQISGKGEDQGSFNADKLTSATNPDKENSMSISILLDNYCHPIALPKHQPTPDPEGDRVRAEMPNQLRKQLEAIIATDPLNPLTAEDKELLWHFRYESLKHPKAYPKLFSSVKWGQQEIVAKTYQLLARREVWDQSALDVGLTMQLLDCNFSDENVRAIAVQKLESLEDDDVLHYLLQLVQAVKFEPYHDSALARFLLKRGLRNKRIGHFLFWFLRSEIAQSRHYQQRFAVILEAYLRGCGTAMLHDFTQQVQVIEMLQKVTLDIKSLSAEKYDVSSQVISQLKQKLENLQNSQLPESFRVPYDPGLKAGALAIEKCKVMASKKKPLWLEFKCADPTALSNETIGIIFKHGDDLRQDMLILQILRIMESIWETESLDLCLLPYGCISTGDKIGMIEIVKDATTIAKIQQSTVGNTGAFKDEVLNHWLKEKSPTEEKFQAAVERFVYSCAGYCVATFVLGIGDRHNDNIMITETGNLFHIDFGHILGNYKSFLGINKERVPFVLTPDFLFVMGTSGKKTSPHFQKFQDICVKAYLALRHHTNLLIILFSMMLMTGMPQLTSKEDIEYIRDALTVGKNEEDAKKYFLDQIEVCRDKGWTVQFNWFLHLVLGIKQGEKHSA
Sequence of PIK3CB (Human) (P42338 whole entry, looked up): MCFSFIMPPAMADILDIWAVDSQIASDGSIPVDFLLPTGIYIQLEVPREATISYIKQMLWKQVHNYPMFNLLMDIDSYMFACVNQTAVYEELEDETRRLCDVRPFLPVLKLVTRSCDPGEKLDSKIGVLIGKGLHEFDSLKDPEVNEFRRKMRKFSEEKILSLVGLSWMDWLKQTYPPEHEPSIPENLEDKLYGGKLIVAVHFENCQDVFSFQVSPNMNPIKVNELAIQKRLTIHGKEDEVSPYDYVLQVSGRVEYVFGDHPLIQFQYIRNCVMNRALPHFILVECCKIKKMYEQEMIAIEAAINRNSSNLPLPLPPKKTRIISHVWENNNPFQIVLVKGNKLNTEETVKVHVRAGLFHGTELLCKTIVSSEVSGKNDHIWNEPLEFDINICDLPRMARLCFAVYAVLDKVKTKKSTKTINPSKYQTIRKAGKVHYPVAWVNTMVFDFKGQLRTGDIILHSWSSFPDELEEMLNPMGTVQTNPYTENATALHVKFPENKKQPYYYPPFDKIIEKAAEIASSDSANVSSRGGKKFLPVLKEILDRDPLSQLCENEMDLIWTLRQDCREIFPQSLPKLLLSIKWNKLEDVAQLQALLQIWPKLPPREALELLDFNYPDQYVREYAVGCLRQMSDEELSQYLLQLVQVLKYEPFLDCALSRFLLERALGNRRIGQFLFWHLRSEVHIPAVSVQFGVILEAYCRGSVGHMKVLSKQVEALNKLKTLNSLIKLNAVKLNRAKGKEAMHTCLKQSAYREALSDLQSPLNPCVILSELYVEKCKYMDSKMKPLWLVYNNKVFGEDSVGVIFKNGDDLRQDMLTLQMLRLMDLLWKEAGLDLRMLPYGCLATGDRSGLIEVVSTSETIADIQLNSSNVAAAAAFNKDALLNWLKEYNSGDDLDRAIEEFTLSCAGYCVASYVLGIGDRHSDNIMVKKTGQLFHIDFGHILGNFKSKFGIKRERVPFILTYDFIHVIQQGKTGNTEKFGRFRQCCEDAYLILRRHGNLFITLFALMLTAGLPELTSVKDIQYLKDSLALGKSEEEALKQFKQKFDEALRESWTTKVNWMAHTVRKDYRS
Sequence of PIK3CA (human) (P42336 whole entry, looked up): as the sequence (P42336 whole entry H1047R, looked up) above, with R1047H counted along it

Row | Compound | IC50 [1] | IC50 (PIK3CG (human)) | IC50 (PIK3CA (human)) | IC50 (PIK3CB (Human)) | IC50 [2]
1 | CN(C)C(=O)c1ccc(NC(=O)Nc2ccc(-c3nc(N4CCOCC4)c4cc(F)c(-c5cnn(C)c5)cc4n3)cn2)cc1 | < 50 nM | < 500 nM | < 50 nM | < 50 nM | < 50 nM
2 | CN(C)C(=O)c1ccc(NC(=O)Nc2ccc(-c3nc(N4CCOCC4)c4ccc(-c5cncnc5)cc4n3)cc2)c(F)c1 | 50 to 500 nM | < 500 nM | < 50 nM | 50 to 500 nM | 50 to 500 nM
3 | CN(C)C(=O)c1ccc(NC(=O)Nc2ccc(-c3nc(N4CCOCC4)c4ccc(-c5cccnc5F)cc4n3)cn2)cc1 | < 50 nM | < 500 nM | < 50 nM | < 50 nM | < 50 nM
4 | CN(C)C(=O)c1ccc(NC(=O)Nc2ccc(-c3nc(N4CCOCC4)c4ncc(-c5cccc(S(C)(=O)=O)c5)cc4n3)cn2)cc1 | < 50 nM | < 500 nM | < 50 nM | < 50 nM | < 50 nM
5 | CN(C)C(=O)c1ccc(NC(=O)Nc2ccc(-c3nc(N4CCOCC4)c4ccc(-c5ccco5)cc4n3)cc2)cc1 | < 50 nM | < 500 nM | < 50 nM | < 50 nM | < 50 nM
6 | CN(C)C(=O)c1ccc(NC(=O)Nc2ccc(-c3nc(N4CCOCC4)c4ccc(-c5cccc(S(C)(=O)=O)c5)cc4n3)cn2)cc1 | < 50 nM | < 500 nM | < 50 nM | < 50 nM | < 50 nM
7 | CN(C)C(=O)c1ccc(NC(=O)Nc2ccc(-c3nc(N4CCOCC4)c4ccc(-c5cccnc5)cc4n3)cc2)c(F)c1 | 50 to 500 nM | < 500 nM | < 50 nM | 50 to 500 nM | 50 to 500 nM
8 | CN(C)C(=O)c1ccc(NC(=O)Nc2ccc(-c3nc(N4CCOCC4)c4ccc(-c5cncnc5)cc4n3)cc2)cc1 | < 50 nM | – | < 50 nM | – | < 50 nM
9 | CN(C)C(=O)c1ccc(NC(=O)Nc2ccc(-c3nc(N4CCOCC4)c4ncc(-c5cccc(S(C)(=O)=O)c5)cc4n3)cc2F)cc1 | < 50 nM | < 500 nM | < 50 nM | 50 to 500 nM | < 50 nM
10 | CN(C)C(=O)c1ccc(NC(=O)Nc2ccc(-c3nc(N4CCOCC4)c4ccc(-c5cccc(S(C)(=O)=O)c5)cc4n3)cn2)cc1F | < 50 nM | < 500 nM | < 50 nM | < 50 nM | < 50 nM
11 | CN(C)C(=O)c1ccc(NC(=O)Nc2ccc(-c3nc(N4CCOCC4)c4ccc(-c5cccnc5F)cc4n3)cc2)c(F)c1 | 50 to 500 nM | – | 50 to 200 nM | 50 to 500 nM | 50 to 500 nM
12 | Cc1ccc(-c2ccc3c(N4CCOCC4)nc(-c4ccc(NC(=O)Nc5ccc(C(=O)N(C)C)cc5)cc4)nc3c2)o1 | < 50 nM | 500 to 1000 nM | < 50 nM | 500 to 1000 nM | < 50 nM
13 | CC(=O)c1ccc(-c2ccc3c(N4CCOCC4)nc(-c4ccc(NC(=O)Nc5ccc(C(=O)N(C)C)cc5)cc4)nc3c2)o1 | – | – | < 50 nM | – | –
14 | Cc1noc(C)c1-c1cnc2c(N3CCOCC3)nc(-c3ccc(NC(=O)Nc4ccc(C(=O)N(C)C)cc4)c(F)c3)nc2c1 | – | – | < 50 nM | – | –
15 | Cc1ccc(-c2ccc3c(N4CCOCC4)nc(-c4ccc(NC(=O)Nc5ccc(C(=O)N(C)CCN(C)C)cc5)cc4)nc3c2)o1 | – | – | < 50 nM | – | –
16 | Cc1ccc(-c2ccc3c(N4CCOC(C)C4)nc(-c4ccc(NC(=O)Nc5ccc(C(=O)N(C)C)cc5)cc4)nc3c2)o1 (configuration not stated) | – | – | 50 to 200 nM | – | –
17 | CNC(=O)c1ccc(NC(=O)Nc2ccc(-c3nc(N4CCOCC4)c4ccc(-c5cccc(S(C)(=O)=O)c5)cc4n3)cc2)cc1 | – | – | < 50 nM | – | –
18 | Cc1ccc(-c2cccc3c(N4CCOCC4)nc(-c4ccc(NC(=O)Nc5ccc(C(=O)N(C)C)cc5)cc4)nc23)o1 | – | – | 50 to 200 nM | – | –
19 | CN(C)CCNC(=O)c1ccc(NC(=O)Nc2ccc(-c3nc(N4CCOCC4)c4ccc(-c5cncnc5)cc4n3)cc2)cc1 | – | – | 50 to 200 nM | – | –
20 | N[C@H]1CCN(C(=O)c2ccc(NC(=O)Nc3ccc(-c4nc(N5CCOCC5)c5ccc(-c6ccco6)cc5n4)cc3)cc2)C1 | – | – | < 50 nM | – | –
21 | CN(C)C(=O)c1ccc(NC(=O)Nc2ccc(-c3nc(N4CCOCC4)c4ccc(-c5ccco5)cc4n3)c(F)c2F)cc1 | – | – | 50 to 200 nM | – | –
22 | Cc1ccncc1-c1cnc2c(N3CCOCC3)nc(-c3ccc(NC(=O)Nc4ccc(C(=O)N(C)C)cc4)c(F)c3)nc2c1 | – | – | 50 to 200 nM | – | –

Row | Compound | IC50 [1] | IC50 (PIK3CG (human)) | IC50 (PIK3CA (human)) | IC50 (PIK3CB (Human)) | IC50 [2]
23 | CN(C)C(=O)c1ccc(NC(=O)Nc2ccc(-c3nc(N4CCOCC4)c4ncc(-c5cccnc5F)cc4n3)cn2)cc1 | < 50 nM | < 500 nM | < 50 nM | < 50 nM | < 50 nM
24 | CN(C)C(=O)c1ccc(NC(=O)Nc2ccc(-c3nc(N4CCOCC4)c4ncc(-c5cnn(C)c5)cc4n3)cn2)cc1 | – | – | < 50 nM | – | –
25 | CN(C)C(=O)c1ccc(NC(=O)Nc2ccc(-c3nc(N4CCOCC4)c4ccc(-c5ccco5)cc4n3)cc2F)cc1 | – | – | 50 to 200 nM | – | –
26 | CN(C)C(=O)c1ccc(NC(=O)Nc2ccc(-c3nc(N4CCOCC4)c4ccc(-c5ccnc(F)c5)cc4n3)cc2)cc1 | – | – | < 50 nM | – | –
27 | CN(C)C(=O)c1ccc(NC(=O)Nc2ccc(-c3nc(N4CCOCC4)c4ncc(-c5cncnc5)cc4n3)cc2)cc1F | – | – | < 50 nM | – | –
28 | CN(C)C(=O)c1ccc(NC(=O)Nc2ccc(-c3nc(N4CCOCC4)c4cc(F)c(-c5ccco5)cc4n3)cc2)cc1 | – | – | 50 to 200 nM | – | –
29 | CN(C)C(=O)c1ccc(NC(=O)Nc2ccc(-c3nc(N4CCOCC4)c4ncc(-c5cnn(C)c5)cc4n3)cc2)c(F)c1 | – | – | < 50 nM | – | –
30 | CN(C)C(=O)c1ccc(NC(=O)Nc2ccc(-c3nc(N4CCOCC4)c4ccccc4n3)cc2)cc1 | – | – | 50 to 200 nM | – | –
31 | CN(C)C(=O)c1ccc(NC(=O)Nc2ccc(-c3nc(N4CCOCC4)c4ncc(-c5cccnc5F)cc4n3)c(F)c2)cc1 | – | – | < 50 nM | – | –
32 | CN(C)C(=O)c1ccc(NC(=O)Nc2ccc(-c3nc(N4CCOCC4)c4ccc(-c5ccco5)cc4n3)c(F)c2)cc1 | – | – | 50 to 200 nM | – | –
33 | COc1ccc2c(N3CCOCC3)nc(-c3ccc(NC(=O)Nc4ccc(C(=O)N(C)C)cc4)cc3)nc2c1 | – | – | < 50 nM | – | –
34 | COc1ncc(-c2ccc3c(N4CCOCC4)nc(-c4ccc(NC(=O)Nc5ccc(C(=O)N(C)C)cc5F)cc4)nc3c2)cn1 | – | – | 50 to 200 nM | – | –
35 | CN1CCN(C(=O)c2ccc(NC(=O)Nc3ccc(-c4nc(N5CCOCC5)c5ccc(-c6ccsc6)cc5n4)cc3)cc2)CC1 | – | – | 50 to 200 nM | – | –
36 | CN(C)[C@H]1CCN(C(=O)c2ccc(NC(=O)Nc3ccc(-c4nc(N5CCOCC5)c5ncc(-c6cccnc6F)cc5n4)cc3F)cc2)C1 | – | – | < 50 nM | – | –
37 | CN(C)C(=O)c1ccc(NC(=O)Nc2ccc(-c3nc(N4CCOCC4)c4ncc(-c5cccnc5)cc4n3)cc2F)cc1 | – | – | < 50 nM | – | –
38 | CN(C)C(=O)c1ccc(NC(=O)Nc2ccc(-c3nc(N4CCOCC4)c4ccc(-c5ccccn5)cc4n3)cc2F)cc1 | – | – | 50 to 200 nM | – | –
39 | COc1ccc2c(N3CCOCC3)nc(-c3ccc(NC(=O)Nc4ccc(C(=O)N(C)C)cc4)c(F)c3)nc2c1 | – | – | 50 to 200 nM | – | –
40 | CC(O)c1ccc(-c2ccc3c(N4CCOCC4)nc(-c4ccc(NC(=O)Nc5ccc(C(=O)N(C)C)cc5)cc4F)nc3c2)o1 (configuration not stated) | – | – | 50 to 200 nM | – | –
41 | CN(C)[C@H]1CCN(C(=O)c2ccc(NC(=O)Nc3ccc(-c4nc(N5CCOCC5)c5ccc(-c6cncnc6)cc5n4)cc3)cc2)C1 | – | – | < 50 nM | – | –
42 | COc1ncc(-c2cnc3c(N4CCOCC4)nc(-c4ccc(NC(=O)Nc5ccc(C(=O)N(C)C)cc5)c(F)c4)nc3c2)cn1 | – | – | < 50 nM | – | –
43 | CN(C)C(=O)c1ccc(NC(=O)Nc2ccc(-c3nc(N4CCOCC4)c4ccc(-c5cccc(N(C)C)c5)cc4n3)cc2)cc1 | – | – | < 50 nM | – | –
